Experimental findings from PMC8197855, “Peptide/β-Peptoid Hybrids with Activity against Vancomycin-Resistant Enterococci: Influence of Hydrophobicity and Structural Features on Antibacterial and Hemolytic Properties” (International Journal of Molecular Sciences, 2021) are described below.

One data set deals with E. faecium 1798. Put plainly: microbe, parasite or virus in culture. The class given is cell-based, Enterococcus faecium. To be noted: 1798, 24 h. How it is done: (§1) Overnight cultures of the enterococcal isolates were diluted in physiological saline (0.9% NaCl) to reach a turbidity of 0.5 McFarland units (Sensititre® nephelometer and the Sensititre® McFarland Standard). Bacterial suspensions were adjusted to 5 × 10^5 CFU/mL in MHB II or BHI broth containing two-fold dilutions of peptidomimetics or conventional antibiotics in a final volume of 100 µL. The plates were incubated for 24 h at 37 °C without shaking. […] All experiments were performed in three biological replicates.

The subject of a further data set is E. faecium 2961. Description: microbe, parasite or virus in culture. The class given is cell-based, Enterococcus faecium. To be noted: 2961, 24 h. How it is done: as §1
The next data set deals with E. faecium 3978. Description: microbe, parasite or virus in culture. As to conditions: 3978, 24 h. The class given is cell-based, Enterococcus faecium. How it is done:
as §1

The next data set deals with E. faecium D344R. Description: microbe, parasite or virus in culture. The class given is cell-based, Enterococcus faecium. To be noted: E. faecium D344R, human clinical isolate; 24 h. How it is done:
as §1

A further data set has as its system E. faecium ATCC 19434. Put plainly: microbe, parasite or virus in culture. The class given is cell-based, Enterococcus faecium. As to conditions: ATCC 19434, 24 h. As to the method: (§2) Overnight cultures of the enterococcal isolates were diluted in physiological saline (0.9% NaCl) to reach a turbidity of 0.5 McFarland units (Sensititre® nephelometer and the Sensititre® McFarland Standard). Bacterial suspensions were adjusted to 5 × 10^5 CFU/mL in MHB II or BHI broth containing two-fold dilutions of peptidomimetics or conventional antibiotics in a final volume of 100 µL. The plates were incubated for 24 h at 37 °C without shaking. […] All experiments were performed in three biological replicates. […]

In another data set the test system is E. faecalis ATCC 29212. Put plainly: microbe, parasite or virus in culture. It counts as cell-based, Enterococcus faecalis. To be noted: ATCC 29212, 24 h. How it is done:
as §2

The next data set concerns E. faecalis 38262. Description: microbe, parasite or virus in culture. It counts as cell-based, Enterococcus faecalis. To be noted: 38262, 24 h. As to the method:
as §1

For the next data set, the system named is E. faecalis 39002. Put plainly: microbe, parasite or virus in culture. The class given is cell-based, Enterococcus faecalis. To be noted: 39002, 24 h. As to the method: as §1
Data set [1] is described as follows: Hydrophobicity by analytical RP-HPLC (% MeCN at peak elution). It counts as physicochemical. How it is done: Water was filtered by using an Evoqua LaboStar PRO TWF Ultra Pure Water System prior to use in high-performance liquid chromatography (HPLC). The retention time for each peptidomimetic was determined by analytical HPLC using a Phenomenex Luna C18(2) HST column (100 mm × 3 mm; particle size: 2.5 μm; pore size: 100 Å) on a Shimadzu Prominence and Shimadzu Nexera system using an aqueous MeCN gradient with 0.1% trifluoroacetic acid (TFA) added (eluent A: 5:95 MeCN–H2O + 0.1% TFA; eluent B: 95:5 MeCN–H2O + 0.1% TFA); a flow rate of 0.5 mL/min was used. For the elution of peptidomimetics, a linear gradient of 0% to 60% B over 10 min was used with UV detection at λ = 220 nm. The percentage MeCN at peak elution was calculated from the retention time (tR) by using the following formula:%MeCN = [0.95 × 0.6 × tR/10 + 0.05 × (1 − 0.6 × tR/10)] × 100%

Another data set is described as follows: Hemolytic activity. The class given is cell-based, human. To be noted: human, human red blood cells (washed, 1% suspension), 37 °C, 1% red blood cell suspension. As to the method: (§3) A suspension of hRBCs (Single-donor human red blood cells—washed; catalogue No. IPLA-W3 from Innovative researchTM) was washed three times with PBS buffer and centrifuged for 5 min at 2500 rpm. A two-fold serial dilution of compounds in PBS buffer was prepared. Plates (conical-bottomed 96-well plates) with 3 replicate wells per dilution, containing 1% red blood cell suspension, were prepared and dosed with the test compound to achieve a final concentration of 400 μg/mL in a total volume of 100 μL. The plates were incubated (37 °C) for 60 min with mild agitation, and then the cells were pelleted by centrifugation at 1500 rpm for 5 min. Then, the supernatants (50 μL) were transferred to a fresh 96-well plate, and then the concentration of hemoglobin was detected by measuring the OD at 405 nm. The OD of cells incubated with 1% SDS achieved 100% hemolysis, while the OD of cells incubated with PBS buffer achieved 0% hemolysis. The concentration tested was 400 μg/mL (only average values are stated in Table 3). The percent hemolysis was calculated by using the formula:Hemolysis(%) = 100 × [(Asample − Aneg.control)/(Apos. control − Aneg.control)]

Data set [2] concerns HepG2 cell line ATCC HB-8065. Description: Effect on HepG2 cell viability (MTT assay). The class given is cell-based, human. As to conditions: 48 h. As to the method:
The effect of peptidomimetics on mammalian cell viability was determined on the HepG2 cell line ATCC HB-8065. In brief, HepG2 cells were seeded into flat-bottom 96-well plates at a concentration of 5000 cells per well. The cells were incubated for 24 h in a humidified incubator (5% CO2, 37 °C). Subsequently, the medium was removed, and the cells were incubated for 48 h in a humidified incubator (5% CO2, 37 °C) with peptidomimetics in serial dilutions. An MTT assay was then performed; in brief, after incubation with the test compounds, the culture medium was removed and fresh medium with 0.2 mg/mL MTT was then added into each well. After incubation (3 h, 37 °C, 5% CO2), the medium with MTT was removed, and 200 μL dimethyl sulfoxide was added at once to each sample. The absorbance of MTT was measured using the spectrophotometer TECAN Infinite M1000 at 540 nm. The relative viability was calculated by using the formula:ODtreated cells × 100/ODcontrol cells
The IC50 values were calculated using the program Graph Pad Prism 5.0. For all compounds, the test range was 10–1280 μg/mL.
In general terms: Tetrazolium assays rely on reduction of a dye to a coloured formazan, in cell work by metabolically active cells.

The subject of another data set is E. faecium isolates. It counts as cell-based, Enterococcus faecium. To be noted: 24 h. As to the method: as §1
In another data set the test system is E. faecalis isolates. The class given is cell-based, Enterococcus faecalis. As to conditions: 24 h. As to the method: as §1
The next data set relates to human red blood cells. Description: Hemolytic activity. The class given is cell-based. As to conditions: 60 min, 37 °C, 1% red blood cell suspension. As to the method:
as §3

Converted amounts (≈) assume the structure as drawn. “And” between values parts separate entries of the source, which are not always exact repeats. Equal values may be shown once. Bounds are passed on as bounds.

For `C[C@@H](c1ccccc1)N(CCC(=O)N[C@@H](CCCCN)C(=O)N(CCC(=O)N[C@@H](CCCCNC(=N)N)C(=O)N(CCC(=O)N[C@@H](CCCCN)C(=O)N(CCC(=O)N[C@@H](CCCCNC(=N)N)C(=O)N(CCC(=O)N[C@@H](CCCCN)C(=O)N(CCC(N)=O)[C@@H](C)c1ccccc1)[C@@H](C)c1ccccc1)[C@@H](C)c1ccccc1)[C@@H](C)c1ccccc1)[C@@H](C)c1ccccc1)C(=O)[C@H](CCCCNC(=N)N)NC(=O)C=Cc1ccccc1` [Compound 6, Cinn-[hArg-βNspe-Lys-βNspe]3-NH2], the Minimum inhibitory concentration in the data set on E. faecium 1798 is on record as 4 µg/mL (≈ 1.91 µM); with E. faecium 2961, 4 µg/mL (≈ 1.91 µM); in the data set on E. faecium 3978, 4 µg/mL (≈ 1.91 µM); in the data set on E. faecium D344R, 4 µg/mL (≈ 1.91 µM); in the data set with E. faecium ATCC 19434, 8 µg/mL (≈ 3.82 µM); in the data set on E. faecalis ATCC 29212, 16 µg/mL (≈ 7.64 µM). Besides, the Minimum inhibitory concentration in the data set with E. faecalis 38262 and in the data set with E. faecalis 39002 was 16 µg/mL (≈ 7.64 µM) each time. Further, the “Hydrophobicity, Luna C18(2) HST (0–60% B; 10 min), retention converted into % MeCN” value (“Hydrophobicity … retention converted into % MeCN” below) in data set [1] came to 45.9 % MeCN. The same compound returned a hemolysis at 60 min, 400 µg/mL in the data set “Hemolytic activity” of 15.7%. Further, the “HepG2 IC50” value in [2] is 42 µg/mL. Moreover, the “MIC (range or typical value) against E. faecium” value (“MIC (range or typical value)” for short) in the data set on E. faecium isolates is 4 to 8 µg/mL. The “MIC (range) against E. faecalis” value in the data set on E. faecalis isolates is on record as 16 µg/mL (≈ 7.64 µM).
As to `C[C@@H](c1ccccc1)N(CCC(N)=O)C(=O)[C@H](CCCCN)NC(=O)CCN(C(=O)[C@H](CCCCNC(=N)N)NC(=O)CCN(C(=O)[C@H](CCCCN)NC(=O)CCN(C(=O)[C@H](CCCCNC(=N)N)NC(=O)CCN(C(=O)[C@H](CCCCN)NC(=O)CCN(C(=O)[C@H](CCCCNC(=N)N)NC(=O)CCN(C(=O)[C@H](CCCCN)NC(=O)CCN(C(=O)[C@@H](N)CCCCNC(=N)N)[C@@H](C)c1ccccc1)[C@@H](C)c1ccccc1)[C@@H](C)c1ccccc1)[C@@H](C)c1ccccc1)[C@@H](C)c1ccccc1)[C@@H](C)c1ccccc1)[C@@H](C)c1ccccc1` [Compound 4, H-[hArg-βNspe-Lys-βNspe]4-NH2], the Minimum inhibitory concentration with E. faecium 1798 is 4 µg/mL (≈ 1.53 µM); in the data set with E. faecium 2961 it was 4 µg/mL (≈ 1.53 µM); in the data set with E. faecium 3978, 4 to 8 µg/mL; with E. faecium D344R it was 4 µg/mL (≈ 1.53 µM); in the data set on E. faecium ATCC 19434, 8 µg/mL (≈ 3.06 µM); in the data set on E. faecalis ATCC 29212, more than 32 µg/mL. Moreover, the Minimum inhibitory concentration in the data set with E. faecalis 38262 is given as 16 µg/mL (≈ 6.12 µM); in the data set with E. faecalis 39002, 32 µg/mL (≈ 12.2 µM). For the same compound, the “Hydrophobicity … retention converted into % MeCN” value in [1] is 43.6 % MeCN. The hemolysis at 60 min, 400 µg/mL in “Hemolytic activity” came out at 2.6%. Besides, the “HepG2 IC50” value in data set [2] amounted to 42 µg/mL. Further, the “MIC (range or typical value)” value against E. faecium isolates lay in the range of 4 to 8 µg/mL.
As for `C[C@@H](c1ccccc1)N(CCC(N)=O)C(=O)[C@H](CCCCN)NC(=O)CCN(C(=O)[C@H](CCCCNC(=N)N)NC(=O)CCN(C(=O)[C@H](CCCCN)NC(=O)CCN(C(=O)[C@H](CCCCNC(=N)N)NC(=O)CCN(C(=O)[C@H](CCCCN)NC(=O)CCN(C(=O)[C@H](CCCCNC(=N)N)NC(=O)CNCCCNCCCCNCCCN)[C@@H](C)c1ccccc1)[C@@H](C)c1ccccc1)[C@@H](C)c1ccccc1)[C@@H](C)c1ccccc1)[C@@H](C)c1ccccc1` [Compound 3, SpermineAc-[hArg-βNspe-Lys-βNspe]3-NH2], the Minimum inhibitory concentration with E. faecium 1798 is 4 to 8 µg/mL; in the data set on E. faecium 2961, 8 µg/mL (≈ 3.63 µM); in the data set on E. faecium 3978 it was 8 µg/mL (≈ 3.63 µM); in the data set with E. faecium D344R, 4 to 8 µg/mL; with E. faecium ATCC 19434, 16 to 32 µg/mL; with E. faecalis ATCC 29212 it was more than 32 µg/mL. Further, the “Hydrophobicity … retention converted into % MeCN” value in data set [1] was 40 % MeCN and 40.2 % MeCN. Besides, the hemolysis at 60 min, 400 µg/mL in “Hemolytic activity” was found to be 0.6%. Besides, in [2], the “HepG2 IC50” value is reported as 41 µg/mL. For the same compound, the “MIC (range or typical value)” value with E. faecium isolates lay in the range of 4 to 8 µg/mL.
With `CC(=O)N[C@@H](CCCCNC(=N)N)C(=O)N(CCC(=O)N[C@@H](CCCCNC(=N)N)C(=O)N(CCC(=O)N[C@@H](CCCCNC(=N)N)C(=O)N(CCC(=O)N[C@@H](CCCCNC(=N)N)C(=O)N(CCC(=O)N[C@@H](CCCCNC(=N)N)C(=O)N(CCC(=O)N[C@@H](CCCCNC(=N)N)C(=O)N(CCC(=O)N[C@@H](CCCCNC(=N)N)C(=O)N(CCC(=O)N[C@@H](CCCCNC(=N)N)C(=O)N(CCC(N)=O)Cc1ccccc1)Cc1ccccc1)Cc1ccccc1)Cc1ccccc1)Cc1ccccc1)Cc1ccccc1)Cc1ccccc1)Cc1ccccc1` [Compound 1, Ac-[hArg-βNPhe]8-NH2], the Minimum inhibitory concentration in the data set with E. faecium 1798 turned out to be 2 µg/mL (≈ 0.738 µM); in the data set on E. faecium 2961, 2 µg/mL (≈ 0.738 µM); in the data set with E. faecium 3978, 4 µg/mL (≈ 1.48 µM); with E. faecium D344R it was 4 µg/mL (≈ 1.48 µM); with E. faecium ATCC 19434, 8 µg/mL (≈ 2.95 µM); in the data set with E. faecalis 38262, 16 µg/mL (≈ 5.9 µM). This compound also had a Minimum inhibitory concentration in the data set with E. faecalis 39002 of 32 µg/mL (≈ 11.8 µM). The “Hydrophobicity … retention converted into % MeCN” value in data set [1] turned out to be 41.8 % MeCN. Besides, the hemolysis at 60 min, 400 µg/mL in “Hemolytic activity” is approximately 6%. Moreover, the “Hemolysis (at 400 µg/mL)” value in the data set with human red blood cells is 6.1%. For the same compound, in data set [2], the “HepG2 IC50” value is 9 µg/mL. Moreover, the “MIC (range or typical value)” value in the data set on E. faecium isolates was 2 to 8 µg/mL.
